Among the data in patent US20250346569A1, “NEW DERIVATIVES FOR TREATING TRPM3 MEDIATED DISORDERS” (Katholieke Universiteit Leuven, priority 2022, published 2025) are IC50 values, retold here.

Usually IC50 stands for the concentration that gives 50% inhibition. High values mean weaker potency, low ones greater potency.

Each structure is given as a SMILES string.

This assay has as its target T1, mouse TRPM3α2 (mTRPM3) ion channel (Mus musculus, UniProt J9SQF3).
T1 construct: expressed in transfected cells; host or cells: flip-in HEK293
The experiment in a line: Monitoring the TRPM3 ion channel driven Ca2+ uptake (Fluo-4 AM assay). In kind it is cell-based. The following applies: TRPM3 overexpressing flip-in HEK293 cells, channel stimulated with Pregnenolone sulfate (PS) 50 μM. Here is the method: Monitoring the TRPM3 ion channel driven Ca^2+ uptake.
In order to monitor the inhibition of the mouse TRPM3α2 (mTRPM3) ion channel by the compounds of the invention, a cellular system making use of an mTRPM3alpha2 or hTRPM3 overexpressing cell line (flip-in HEK293) was used. The TRPM3 channel was stimulated/opened with Pregnenolone sulfate (PS) (50 μM) which results in Ca^2+ influx.
For mTRPM3, the intracellular Ca^2+ was measured with a Calcium responsive dye, Fluor-4 AM ester (Invitrogen). Cells were cultured until a confluence of 80-90%, washed with Versene (Invitrogen) and detached from the surface by a short incubation with 0.05% Trypsin (Invitrogen). The trypsination process was stopped by the addition of complete cell culture medium (DMEM, glutamax,10% FCS,NEAA,Pen-Strep). Cells were collected and resuspended in Krebs buffer without Calcium at RT.
Prior the cell seeding (±2000 cells/well into a black, 384 well plate (Greiner)) the diluted compound was added in the assay plate, together with the PS dissolved in Krebs buffer containing Calcium. […] Directly after cell addition the plates were read on an Envision fluorescence reader (Perkin Elmer) by an Excitation of 485 nm and emission at 535 nm.
Channel inhibition was calculated compared to a non-PS stimulated control versus a condition stimulated with PS (50 μM) with vehicle. The ability of the compounds of the invention to inhibit this activity was determined as: Percentage inhibition=[1−((RFU determined for sample with test compound present−RFU determined for sample with positive control inhibitor) divided by (RFU determined in the presence of vehicle−RFU determined for sample with positive control inhibitor))]*100.
The activities of the Example compounds tested are depicted in the table below. The activity ranges A, B and C refer to IC50 values in the Fluo-4 AM assay as follows: “A”: IC50<1 μM; “B”: 1 μM≤IC50≤20 μM and “C”: IC50>20 μM

T1 sequence (J9SQF3 1-1709 isoform J9SQF3-12): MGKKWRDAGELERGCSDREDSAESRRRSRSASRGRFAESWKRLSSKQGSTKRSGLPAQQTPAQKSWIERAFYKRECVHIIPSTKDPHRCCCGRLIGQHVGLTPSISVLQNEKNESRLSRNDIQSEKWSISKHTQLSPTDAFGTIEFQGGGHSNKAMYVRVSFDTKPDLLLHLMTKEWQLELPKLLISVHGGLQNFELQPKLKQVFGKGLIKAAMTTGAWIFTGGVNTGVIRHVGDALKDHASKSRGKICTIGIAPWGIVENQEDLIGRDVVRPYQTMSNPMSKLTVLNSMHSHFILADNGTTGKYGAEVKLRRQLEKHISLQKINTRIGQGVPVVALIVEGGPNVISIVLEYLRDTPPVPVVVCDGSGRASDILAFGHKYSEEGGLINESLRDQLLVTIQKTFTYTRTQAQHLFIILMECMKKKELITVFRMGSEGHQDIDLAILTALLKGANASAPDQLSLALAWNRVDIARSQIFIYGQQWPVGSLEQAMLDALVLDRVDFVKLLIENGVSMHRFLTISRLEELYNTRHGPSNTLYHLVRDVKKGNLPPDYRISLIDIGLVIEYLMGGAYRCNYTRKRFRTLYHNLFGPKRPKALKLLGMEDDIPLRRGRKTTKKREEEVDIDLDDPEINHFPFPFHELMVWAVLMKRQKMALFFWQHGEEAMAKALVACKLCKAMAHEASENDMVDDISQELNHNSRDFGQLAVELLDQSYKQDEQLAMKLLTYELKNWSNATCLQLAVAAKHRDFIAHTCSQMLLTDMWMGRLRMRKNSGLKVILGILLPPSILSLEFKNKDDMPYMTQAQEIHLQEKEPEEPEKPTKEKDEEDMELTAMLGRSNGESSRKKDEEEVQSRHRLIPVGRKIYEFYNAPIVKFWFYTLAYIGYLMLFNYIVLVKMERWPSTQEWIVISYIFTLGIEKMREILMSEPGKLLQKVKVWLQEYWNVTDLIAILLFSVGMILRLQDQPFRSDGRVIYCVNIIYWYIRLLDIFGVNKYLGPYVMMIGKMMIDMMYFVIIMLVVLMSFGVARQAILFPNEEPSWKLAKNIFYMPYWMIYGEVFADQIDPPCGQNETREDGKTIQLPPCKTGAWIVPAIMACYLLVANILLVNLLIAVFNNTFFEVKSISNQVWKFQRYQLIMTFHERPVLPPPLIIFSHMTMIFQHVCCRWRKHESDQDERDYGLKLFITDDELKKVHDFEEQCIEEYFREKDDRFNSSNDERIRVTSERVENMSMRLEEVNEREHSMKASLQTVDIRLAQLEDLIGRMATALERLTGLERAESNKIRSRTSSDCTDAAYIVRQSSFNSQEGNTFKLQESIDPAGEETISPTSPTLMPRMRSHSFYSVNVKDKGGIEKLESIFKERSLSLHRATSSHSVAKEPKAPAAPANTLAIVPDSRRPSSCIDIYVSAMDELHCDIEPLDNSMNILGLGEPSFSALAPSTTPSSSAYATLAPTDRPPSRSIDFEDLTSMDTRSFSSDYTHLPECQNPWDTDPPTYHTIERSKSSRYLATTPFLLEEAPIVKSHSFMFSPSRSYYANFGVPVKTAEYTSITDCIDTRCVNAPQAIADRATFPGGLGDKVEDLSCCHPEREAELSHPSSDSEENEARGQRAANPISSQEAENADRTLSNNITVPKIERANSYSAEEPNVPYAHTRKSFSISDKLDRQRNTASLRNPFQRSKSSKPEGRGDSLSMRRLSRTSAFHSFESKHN

Consider `O=C(NC1(CO)CCOCC1)c1c(C(F)F)sc2ccc(OCc3ccccc3)cc12` [Cpd 152, 5-(benzyloxy)-2-(difluoromethyl)-N-[4-(hydroxymethyl)oxan-4-yl]-1-benzothiophene-3-carboxamide], for which the IC50 was more than 20000 nM.

Take `Cc1ncc(COc2ccc3sc(C)c(C(=O)NC4(C(N)=O)CCOC4)c3c2)s1` (stereo not shown) [Cpd 020, 3-{2-methyl-5-[(2-methyl-1,3-thiazol-5-yl)methoxy]-1-benzothiophene-3-amido}oxolane-3-carboxamide]: the IC50 was less than 1000 nM.

In turn, `Cc1ncc(COc2ccc3sc(C)c(C(=O)NC4(C(N)=O)CCOCC4)c3c2)s1` [Cpd 021, 4-{2-methyl-5-[(2-methyl-1,3-thiazol-5-yl)methoxy]-1-benzothiophene-3-amido}oxane-4-carboxamide] displayed an IC50 of less than 1000 nM.

The compound `Cc1sc2ccc(OCc3ccccc3)cc2c1C(=O)N[C@H]1CCNC1=O` [Cpd 060, 5-(benzyloxy)-2-methyl-N-[(3S)-2-oxopyrrolidin-3-yl]-1-benzothiophene-3-carboxamide] gave an IC50 of less than 1000 nM.

The compound `Cc1sc2ccc(OCc3cccnc3C(F)(F)F)cc2c1C(=O)NC1CCN(C)C1` (stereo not shown) [Cpd 125, 2-methyl-N-(1-methylpyrrolidin-3-yl)-5-{[2-(trifluoromethyl)pyridin-3-yl]methoxy}-1-benzothiophene-3-carboxamide] showed an IC50 of less than 1000 nM.

With `CN(C)C1(CNC(=O)c2c(C(F)F)sc3ccc(OCc4ccccc4)cc23)CCCC1` [Cpd 112, 5-(benzyloxy)-2-(difluoromethyl)-N-{[1-(dimethylamino)cyclopentyl]methyl}-1-benzothiophene-3-carboxamide], the IC50 fell in the range of 1000 to 20000 nM.

On to `Cc1sc2ccc(OCc3ccccc3F)cc2c1C(=O)N[C@@H](CO)C(N)=O` [Cpd 051, (2S)-2-({5-[(2-fluorophenyl)methoxy]-2-methyl-1-benzothiophen-3-yl}formamido)-3-hydroxypropanamide], for which the IC50 was less than 1000 nM.

With `Cc1ncsc1COc1ccc2sc(C)c(C(=O)NC3CCNC3=O)c2c1` (stereo not shown) [Cpd 041, 2-methyl-5-[(4-methyl-1,3-thiazol-5-yl)methoxy]-N-(2-oxopyrrolidin-3-yl)-1-benzothiophene-3-carboxamide], the IC50 is less than 1000 nM.

In turn, `Cc1ncc(COc2ccc3sc(C)c(C(=O)NC4(CO)CCOCC4)c3c2)s1` [Cpd 024, N-[4-(hydroxymethyl)oxan-4-yl]-2-methyl-5-[(2-methyl-1,3-thiazol-5-yl)methoxy]-1-benzothiophene-3-carboxamide] displayed an IC50 of 1000 to 20000 nM.

As for `COc1ncccc1COc1ccc2sc(C)c(C(=O)N[C@H](C)C(N)=O)c2c1` [Cpd 140, (2R)-2-({5-[(2-methoxypyridin-3-yl)methoxy]-2-methyl-1-benzothiophen-3-yl}formamido)propanamide], the IC50 is less than 1000 nM.

`Cc1sc2ccc(OCc3cccnc3C(F)(F)F)cc2c1C(=O)NC1CC(F)(F)C1` [Cpd 090, N-(3,3-difluorocyclobutyl)-2-methyl-5-{[2-(trifluoromethyl)pyridin-3-yl]methoxy}-1-benzothiophene-3-carboxamide] returned a concentration for half-maximal inhibition (IC50) of more than 20000 nM.

`O=C(NC1CC(F)(F)C1)c1c(C(F)F)sc2ccc(OCc3ccccc3)cc12` [Cpd 145, 5-(benzyloxy)-N-(3,3-difluorocyclobutyl)-2-(difluoromethyl)-1-benzothiophene-3-carboxamide] came in with an IC50 of more than 20000 nM.

Regarding `Cc1sc2ccc(OCc3cccnc3C(F)(F)F)cc2c1C(=O)NC1CCN(C)CC1` [Cpd 129, 2-methyl-N-(1-methylpiperidin-4-yl)-5-{[2-(trifluoromethyl)pyridin-3-yl]methoxy}-1-benzothiophene-3-carboxamide], the IC50 is less than 1000 nM.

`Cc1sc2ccc(OCc3ccccc3F)cc2c1C(=O)N[C@H](C)C(N)=O` [Cpd 002, (2R)-2-({5-[(2-fluorophenyl)methoxy]-2-methyl-1-benzothiophen-3-yl}formamido)propanamide] registered a half-maximal inhibitory concentration (IC50) of less than 1000 nM.

Consider `Cc1sc2ccc(OCc3ccccc3F)cc2c1C(=O)N[C@H](CO)C(N)=O` [Cpd 056, (2R)-2-({5-[(2-fluorophenyl)methoxy]-2-methyl-1-benzothiophen-3-yl}formamido)-3-hydroxypropanamide], for which the IC50 was less than 1000 nM.

`COc1ncccc1COc1ccc2sc(C)c(C(=O)N[C@@H](CO)C(N)=O)c2c1` [Cpd 139, (2S)-3-hydroxy-2-({5-[(2-methoxypyridin-3-yl)methoxy]-2-methyl-1-benzothiophen-3-yl}formamido)propanamide] returned an IC50 of less than 1000 nM.

With `O=C(NCc1cccc(O)n1)c1c(C(F)F)sc2ccc(OCc3ccccc3)cc12` [Cpd 151, 5-(benzyloxy)-2-(difluoromethyl)-N-[(6-hydroxypyridin-2-yl)methyl]-1-benzothiophene-3-carboxamide], the IC50 was more than 20000 nM.

On to `Cc1ncsc1COc1ccc2sc(C)c(C(=O)NC(C)(CO)CO)c2c1` [Cpd 032, N-(1,3-dihydroxy-2-methylpropan-2-yl)-2-methyl-5-[(4-methyl-1,3-thiazol-5-yl)methoxy]-1-benzothiophene-3-carboxamide], for which the IC50 was less than 1000 nM.

`Cc1ncsc1COc1ccc2sc(C)c(C(=O)NC3(CO)COC3)c2c1` [Cpd 037, N-[3-(hydroxymethyl)oxetan-3-yl]-2-methyl-5-[(4-methyl-1,3-thiazol-5-yl)methoxy]-1-benzothiophene-3-carboxamide] yielded an IC50 of less than 1000 nM.

`Cc1sc2ccc(OCc3ccccn3)cc2c1C(=O)NC1(CO)CCC1` [Cpd 078, N-[1-(hydroxymethyl)cyclobutyl]-2-methyl-5-[(pyridin-2-yl)methoxy]-1-benzothiophene-3-carboxamide] showed an IC50 of less than 1000 nM.

On to `Cc1sc2ccc(OCc3cccnc3C(F)(F)F)cc2c1C(=O)NC1CN(C)CC1(F)F` (stereo not shown) [Cpd 121, N-(4,4-difluoro-1-methylpyrrolidin-3-yl)-2-methyl-5-{[2-(trifluoromethyl)pyridin-3-yl]methoxy}-1-benzothiophene-3-carboxamide], for which the IC50 was less than 1000 nM.

With `Cc1ncsc1COc1ccc2sc(C)c(C(=O)N[C@H](CO)C(N)=O)c2c1` [Cpd 029, (2R)-3-hydroxy-2-({2-methyl-5-[(4-methyl-1,3-thiazol-5-yl)methoxy]-1-benzothiophen-3-yl}formamido)propanamide], the IC50 is less than 1000 nM.

Consider `Cc1sc2ccc(OCc3ccccn3)cc2c1C(=O)NC1(CO)COC1` [Cpd 086, N-[3-(hydroxymethyl)oxetan-3-yl]-2-methyl-5-[(pyridin-2-yl)methoxy]-1-benzothiophene-3-carboxamide], for which the IC50 was less than 1000 nM.

For `Cc1sc2ccc(OCc3ccccc3F)cc2c1C(=O)NC1(CO)COC1` [Cpd 085, 5-[(2-fluorophenyl)methoxy]-N-[3-(hydroxymethyl)oxetan-3-yl]-2-methyl-1-benzothiophene-3-carboxamide], the IC50 is less than 1000 nM.

In turn, `Cc1sc2ccc(OCc3ccccc3F)cc2c1C(=O)NC1(C(N)=O)CCOCC1` [Cpd 070, 4-{5-[(2-fluorophenyl)methoxy]-2-methyl-1-benzothiophene-3-amido}oxane-4-carboxamide] returned an IC50 of less than 1000 nM.

The compound `Cc1ncc(COc2ccc3sc(C)c(C(=O)NC(C)(CO)C(N)=O)c3c2)s1` (single isomer, unassigned) [Cpd 019 - En2, 3-hydroxy-2-methyl-2-({2-methyl-5-[(2-methyl-1,3-thiazol-5-yl)methoxy]-1-benzothiophen-3-yl}formamido)propanamide] displayed an IC50 of less than 1000 nM.

As for `CC(C)(CNC(=O)c1c(C(F)F)sc2ccc(OCc3ccccc3)cc12)N1CCOCC1` [Cpd 013, 5-(benzyloxy)-2-(difluoromethyl)-N-[2-methyl-2-(morpholin-4-yl)propyl]-1-benzothiophene-3-carboxamide], the IC50 is 1000 to 20000 nM.

Turning to `Cc1sc2ccc(OCc3ccccc3F)cc2c1C(=O)N[C@@H](C)C(N)=O` [Cpd 007, (2S)-2-({5-[(2-fluorophenyl)methoxy]-2-methyl-1-benzothiophen-3-yl}formamido)propanamide], the 50% inhibitory concentration (IC50) was less than 1000 nM.

As for `Cc1ncc(COc2ccc3sc(C)c(C(=O)NC4(CO)CC4)c3c2)s1` [Cpd 022, N-[1-(hydroxymethyl)cyclopropyl]-2-methyl-5-[(2-methyl-1,3-thiazol-5-yl)methoxy]-1-benzothiophene-3-carboxamide], the IC50 was 1000 to 20000 nM.

Compound `Cc1sc2ccc(OCc3ccccc3)cc2c1C(=O)NC1CCN(C)C1` (stereo not shown) [Cpd 123, 5-(benzyloxy)-2-methyl-N-(1-methylpyrrolidin-3-yl)-1-benzothiophene-3-carboxamide] registered an IC50 of less than 1000 nM.

In the case of `COc1ncccc1COc1ccc2sc(C)c(C(=O)NC3(CO)CCC3)c2c1` [Cpd 143, N-[1-(hydroxymethyl)cyclobutyl]-5-[(2-methoxypyridin-3-yl)methoxy]-2-methyl-1-benzothiophene-3-carboxamide], the IC50 is less than 1000 nM.
